Tests used:
Format in all cases: in vivo, Sprague-Dawley rats
STZ diabetic rats [1] = experiment: Plasma glucose and glycated hemoglobin (HbA1c); settings: for HbA1c / PLASMA GLUCOSE: 50 mg/kg/day, 5 weeks, mean ± S.E.
Excerpt: A well-established model of streptozotocin (STZ)-induced diabetes in rats was used. Streptozotocin is a glucosamine derivative of nitrosurea which selectively destroys the β cells of the pancreatic islets and causes the development of diabetes with hyperglycemia and glycosuria. The model shares a series of characteristics with human diabetic complications at both a functional level and a biochemical level, such as, for example, a reduced nervous conduction, loss of small-diameter sensory nerve fibers in the skin, reduction in Na+ and K+-ATPase activity and early alterations of the thermal and mechanical nociceptive thresholds. In this study, diabetes was induced in 24 rats with a single intraperitoneal injection of 60 mg/kg of STZ dissolved in a sodium citrate buffer (pH 4.5). 24 rats injected only with the vehicle were used as non-diabetic controls. Hyperglycemia was confirmed by measuring glycosuria 72 hours after the injection of STZ using Keto-Diabur strips (KD-5000; Roche Diagnostics Spa, Italy). Only the animals with glycosuria >5% were classified as diabetic and included in the study. […] The animals were then randomized to receive the concentrate of the invention at an HT equivalent dose of 50 mg/kg/day or 50 mg/kg/day of pure HT in drinking water, according to the following treatment groups: The daily dose of compounds was administered starting from the 7th week after the injection of STZ or the vehicle. The treatment lasted 5 weeks and urine samples were taken. The animals were then sacrificed and the plasma, kidneys and sciatic nerves were removed. The sacrifice took place within 2 hours after the last administration of the concentrate, HT or the vehicle. During the trial, the rats were weighed weekly to monitor their weight gain/loss. Hyperglycemia was confirmed in every rat by measuring the glucose level in the blood taken from the vein of the tail with a suitable apparatus (Glucomen, Menarini, Italy), 15 days after the injection of STZ. A plasma glucose level above 300 mg/dL was defined as the hyperglycemia threshold for defining the animals as diabetics. At the end of the 5-week treatment period, urine and plasma were collected to measure the level of triglycerides (TG), total cholesterol (TC), high-density lipoprotein (HDL) and other parameters using commercially available diagnostic kits.

STZ diabetic rats [2] = experiment: Mechanical nociceptive threshold (Randall-Selitto test); settings: non-diabetic rats
Excerpt: A well-established model of streptozotocin (STZ)-induced diabetes in rats was used. Streptozotocin is a glucosamine derivative of nitrosurea which selectively destroys the β cells of the pancreatic islets and causes the development of diabetes with hyperglycemia and glycosuria. The model shares a series of characteristics with human diabetic complications at both a functional level and a biochemical level, such as, for example, a reduced nervous conduction, loss of small-diameter sensory nerve fibers in the skin, reduction in Na+ and K+-ATPase activity and early alterations of the thermal and mechanical nociceptive thresholds. In this study, diabetes was induced in 24 rats with a single intraperitoneal injection of 60 mg/kg of STZ dissolved in a sodium citrate buffer (pH 4.5). 24 rats injected only with the vehicle were used as non-diabetic controls. Hyperglycemia was confirmed by measuring glycosuria 72 hours after the injection of STZ using Keto-Diabur strips (KD-5000; Roche Diagnostics Spa, Italy). […] The animals were then randomized to receive the concentrate of the invention at an HT equivalent dose of 50 mg/kg/day or 50 mg/kg/day of pure HT in drinking water, according to the following treatment groups: The mechanical nociceptive threshold (Randall-Selitto test) was assessed using an electromechanical apparatus (Ugo Basile, Varese, Italy). […]

STZ diabetic rats [3] = experiment: Eye examination and cataract classification
Excerpt: A well-established model of streptozotocin (STZ)-induced diabetes in rats was used. Streptozotocin is a glucosamine derivative of nitrosurea which selectively destroys the β cells of the pancreatic islets and causes the development of diabetes with hyperglycemia and glycosuria. The model shares a series of characteristics with human diabetic complications at both a functional level and a biochemical level, such as, for example, a reduced nervous conduction, loss of small-diameter sensory nerve fibers in the skin, reduction in Na+ and K+-ATPase activity and early alterations of the thermal and mechanical nociceptive thresholds. In this study, diabetes was induced in 24 rats with a single intraperitoneal injection of 60 mg/kg of STZ dissolved in a sodium citrate buffer (pH 4.5). 24 rats injected only with the vehicle were used as non-diabetic controls. Hyperglycemia was confirmed by measuring glycosuria 72 hours after the injection of STZ using Keto-Diabur strips (KD-5000; Roche Diagnostics Spa, Italy). Only the animals with glycosuria >5% were classified as diabetic and included in the study. […] The animals were then randomized to receive the concentrate of the invention at an HT equivalent dose of 50 mg/kg/day or 50 mg/kg/day of pure HT in drinking water, according to the following treatment groups: The opacity of the eyes and of the crystalline lenses was examined every week starting from the seventh/eighth week after the induction of diabetes, the period in which, in the STZ diabetic model, cataracts manifest themselves. Cataract severity was classified using a validated semi-quantitative scale. In particular, the following assessment scheme and the following scores were used: [table] The opacity index was calculated to quantitatively assess the degree of opacity of the crystalline lens by means of the following formula: [formula]

[4] = non-diabetic control rats (CTRL)

OCCc1ccc(O)c(O)c1 [HT, hydroxytyrosol]
reduction in HbA1c (glycated hemoglobin) (STZ diabetic rats [1]; STZ diabetic rats vs. untreated diabetic rats): 20% | HbA1c (STZ diabetic rats [1]; STZ diabetic rats): 52.3 ± 5.3 mM/mol | PLASMA GLUCOSE (STZ diabetic rats [1]; STZ diabetic rats): 729.6 ± 36.5 mg/dL | HbA1c (STZ diabetic rats [1]; [4]): 16.7 ± 0.2 mM/mol | PLASMA GLUCOSE (STZ diabetic rats [1]; [4]): 186.1 ± 3.2 mg/dL | effect on mechanical nociceptive threshold (STZ diabetic rats [2]): no effect | diabetic rats in the fourth cataract phase (STZ diabetic rats [3]; end of the fifth week, untreated 67%): 30% | eyes with cataracts at stage 0 (STZ diabetic rats [3]; end of the treatments, untreated none): 3 eyes | opacity index (STZ diabetic rats [3]; end of treatment, untreated 5.3): 2.0

— patent US20210046139A1, “VEGETATION WATERS AND USES THEREOF” (FATTORIA LA VIALLA DI GIANNI, ANTONIO E BANDINO LO FRANCO - …, priority 2018, published 2021)
